In patent US20210030022A1, “NOVEL USE OF SUBSTITUTED CHROMAN-6-OLS” (DSM IP ASSETS B.V., priority 2018, published 2021):
“Also recorded” adds a separate entry of the source.

Tests used:
[1] = Oxipres antioxidant efficacy value (EV) in pet food; details: Oxipres 70° C., 5 bar O2, equimolar to BHT; EV relative to BHT (EV=1)
Protocol: (§1) Oxidative stability was assessed using an Oxipres (Mikrolab Aarhus A/S, Hojbjerg, Denmark). The ML OXIPRES® is designed to monitor the oxidation of heterogeneous products. Consumption of oxygen results in a pressure drop which is measured by means of pressure transducers. The samples are heated to accelerate the process and shorten the analysis time (Mikrolab Aarhus 2012).
(§2) Sample weights were 50 g. They were loaded into the Oxipres vessels and placed inside the stainless-steel pressure vessel and sealed. The pressure vessels were purged with pure oxygen and filled to an initial oxygen pressure of 5 bar and maintained at 70° C. during measurement (D. Ying, L. Edin, L. Cheng, L. Sanguansri, M. A. Augustin, LWT—Food Science and Technology 2015, 62, 1105-1111: “Enhanced oxidative stability of extruded product containing polyunsaturated oils.”).
(§3) The oxygen pressure was recorded as function of time. After sample load and temperature rise the pressure in the device is increasing within 10 hours up to the starting pressure. Thereafter it is decreasing. Consequently, the starting pressure is considered as being the pressure after 10 hours. The analysis ends after 130 hours at 70° C. The oxygen consumption ‘O2’ of the tested sample is calculated as follows: […]
(§4) A factor of protection called ‘EV’ (Efficacy Value) was developed to quantify with a relative number (relative to BHT) the antioxidant effect of the tested candidates. EV was calculated as follows:
(§5) EV, being relative to BHT (3,5-di-tert-butyl-4-hydroxy-toluene) (EV=1), makes it possible to compare the antioxidant compounds in a defined feed application.
(§6) Each of the compounds of formulae (1) to (6) were mixed into each matrix 1, 2 or 3 (pet food, poultry meal, fish meal) in an equimolar ratio compared to BHT. Batches of 200 g feed were produced in order to handle a minimum of 30 mg of antioxidant. First, a 1% pre-dilution of the antioxidant with the feed material was made. Then this pre-dilution was added to the final batch, mixed, sieved (1.25 mm sieve) and mixed using a turbula mixer. Thereafter 55 g of the final batch were packed into polyethylene bags, and stored at 4° C. until start of the Oxipres assay. Spare sample were stored at 4° C. Compound of formula (3) was measured in all three matrices. Compound of formula (1) was measured in matrix 1 and 2. Compound of formula (2) was measured in matrix 2. Compounds of formulae (4), (5) and (6) were measured in matrix 3. An efficacy value 0.7 has been considered as acceptable, an efficacy value ≥ the efficacy value of alpha-tocopherol as good, and an efficacy value ≥ the efficacy value of BHT as very good.

[2] = Oxipres antioxidant efficacy value (EV) in poultry meal; details: Oxipres 70° C., 5 bar O2, equimolar to BHT; EV relative to BHT (EV=1)
Protocol: as §1, §2, §3, §4, §5, §6

[3] = Oxipres antioxidant efficacy value (EV) in fish meal; details: Oxipres 70° C., 5 bar O2, equimolar to BHT; EV relative to BHT (EV=1)
Protocol: as §1, §2, §3, §4, §5, §6

Solubility in fish oil = type: physicochemical; details: fish oil, 0.5 and 2 mg/g; mixed around 40° C. to dissolve completely
Protocol: The compounds of formulae (4), (6), (8) and (9) were evaluated primarily for their oxidative stability by the Oil Stability Index (OSI) measurements. Two different levels of these antioxidants (0.5 and 2 mg/g) were used in 5 g of natural fish oil (Product code: FG30TG) and used in the Oxidative Stability Instrument at 80° C. with the air flow rate of 40 psi. The solubility of different amounts and types of antioxidants used in OSI was checked before and after the application. […]

[4] = Oil Stability Index (OSI) in fish oil, Example 13; details: for OSI: Table 28, FG30TG fish oil, 80° C.; for Protection Factor (%): Table 34, fish oil (80° C.)
Protocol: The compounds of formulae (3) and (7) were used in both fish and algal oils to see their antioxidant effect in these oils. Antioxidant effect was determined using mainly the Oil Stability Index (OSI). Two concentration levels were used: 0.5 mg/g (low level) and 2 mg/g (high level), respectively, have been added to 5 g of oil and used in the Oxidative Stability Instrument operated at 80° C. with the continuous air flow rate at ˜40 psi. All samples were run in duplicate. The Protection Factors (PF) for each compound, as percentage, in oil were calculated as, [formula]

[5] = Storage stability in fish oil (PV, p-AV), Example 13; details: for Peroxide values (PV, meq/kg) / p-Anisidine value (p-AV): storage at 25° C.
Protocol: A storage stability study was performed to compare the variation of primary oxidation products, the hydroperoxides, generated during oxidation, measured in terms of peroxide value (PV) and the secondary oxidation products which were measured and determined as anisidine reactive substances or p-anisidine value (p-AV) of oil samples containing these compounds.
The two different concentrations of compounds of formulae (3) and (7) were used for the storage stability study. Each compound and MNT were added, each individually, to 40 g of fish oil samples in 60 ml amber bottles at 0.5 mg/g and 2 mg/g levels, thoroughly mixed and stored at ambient temperature for 19 days. All sample bottles were stored open to air, away from light. […] Peroxide values (PV) and p-anisidine values (p-AV) were determined at different times for 19 days.

[6] = Oil Stability Index (OSI) in crude algal oil, Example 13; details: for OSI: Table 33, crude algal oil (contained about 1.6 mg/g MNT prior to use), 80° C.; for Protection Factor (%): Table 35, crude algal oil (80° C.)
Protocol: The compounds of formulae (3) and (7) were used in both fish and algal oils to see their antioxidant effect in these oils. Antioxidant effect was determined using mainly the Oil Stability Index (OSI).
Two concentration levels were used: 0.5 mg/g (low level) and 2 mg/g (high level), respectively, have been added to 5 g of oil and used in the Oxidative Stability Instrument operated at 80° C. with the continuous air flow rate at ˜40 psi. All samples were run in duplicate. The Protection Factors (PF) for each compound, as percentage, in oil were calculated as,
The Oil Stability Indices (OSI) of crude algal oil with levels of 0.5 mg/g and 2 mg/g of compounds of formulae (3) or (7) are shown in Table 33.

Structure (SMILES): CC1(C)CCc2cc(O)ccc2O1 [Compound of formula (3), 2,2-dimethyl-chroman-6-ol]
- EV in pet food [1]: 0.95
- EV in poultry meal [2]: 1.17
- EV in Fish meal [3]: 0.96
- Solubility in oil (Solubility in fish oil): not readily soluble in oil
- OSI ([4]; 0.5 mg/g): 7.13 h
- OSI ([4]; 2 mg/g): 7.48 h
- Protection Factor (%) ([4]; 0.5 mg/g): 42.5%
- Protection Factor (%) ([4]; 2 mg/g): 49.5%
- antioxidant activity (OSI) in fish oil compared with MNT ([4]; fish oil, Example 13, 0.5 and 2 mg/g): slightly higher Oil Stability Indices than those of MNT; also recorded: comparable in activity with MNT
- level of secondary oxidation products (p-AV) during storage ([5]; 0.5 mg/g concentration): lowest level of secondary oxidation products (p-AV)
- Peroxide values (PV, meq/kg) ([5]; 0.5 mg/g level, 1 day): 1 meq/kg
- p-Anisidine value (p-AV) ([5]; 0.5 mg/g level, 1 day): 9.5
- Peroxide values (PV, meq/kg) ([5]; 0.5 mg/g level, 5 days): 2 meq/kg
- p-Anisidine value (p-AV) ([5]; 0.5 mg/g level, 5 days): 9.5
- Peroxide values (PV, meq/kg) ([5]; 0.5 mg/g level, 8 days): 6.4 meq/kg
- p-Anisidine value (p-AV) ([5]; 0.5 mg/g level, 8 days): 11.2
- Peroxide values (PV, meq/kg) ([5]; 0.5 mg/g level, 14 days): 12.8 meq/kg
- p-Anisidine value (p-AV) ([5]; 0.5 mg/g level, 14 days): 11.4
- Peroxide values (PV, meq/kg) ([5]; 0.5 mg/g level, 19 days): 20.9 meq/kg
- p-Anisidine value (p-AV) ([5]; 0.5 mg/g level, 19 days): 12.8
- Peroxide values (PV, meq/kg) ([5]; 0.5 mg/g level, Initial): 1 meq/kg
- p-Anisidine value (p-AV) ([5]; 0.5 mg/g level, Initial): 9.4
- Peroxide values (PV, meq/kg) ([5]; 2 mg/g level, 1 day): 1 meq/kg
- p-Anisidine value (p-AV) ([5]; 2 mg/g level, 1 day): 9.4
- Peroxide values (PV, meq/kg) ([5]; 2 mg/g level, 5 days): 1.9 meq/kg
- p-Anisidine value (p-AV) ([5]; 2 mg/g level, 5 days): 9.3
- Peroxide values (PV, meq/kg) ([5]; 2 mg/g level, 8 days): 6.4 meq/kg
- p-Anisidine value (p-AV) ([5]; 2 mg/g level, 8 days): 10.8
- Peroxide values (PV, meq/kg) ([5]; 2 mg/g level, 14 days): 14.1 meq/kg
- p-Anisidine value (p-AV) ([5]; 2 mg/g level, 14 days): 11.2
- Peroxide values (PV, meq/kg) ([5]; 2 mg/g level, 19 days): 26.8 meq/kg
- p-Anisidine value (p-AV) ([5]; 2 mg/g level, 19 days): 11.8
- Peroxide values (PV, meq/kg) ([5]; 2 mg/g level, Initial): 1 meq/kg
- p-Anisidine value (p-AV) ([5]; 2 mg/g level, Initial): 9.4
- OSI ([6]; 0.5 mg/g): 17.05 h
- OSI ([6]; 2 mg/g): 18.63 h
- Protection Factor (%) ([6]; 0.5 mg/g): 13.7%
- Protection Factor (%) ([6]; 2 mg/g): 24.2%
